Target: T1, panel of 442 kinases (Homo sapiens, UniProt Q8IYT8)
T1 construct: purchased KINOMEscan
T1 sequence (Q8IYT8 1-1036): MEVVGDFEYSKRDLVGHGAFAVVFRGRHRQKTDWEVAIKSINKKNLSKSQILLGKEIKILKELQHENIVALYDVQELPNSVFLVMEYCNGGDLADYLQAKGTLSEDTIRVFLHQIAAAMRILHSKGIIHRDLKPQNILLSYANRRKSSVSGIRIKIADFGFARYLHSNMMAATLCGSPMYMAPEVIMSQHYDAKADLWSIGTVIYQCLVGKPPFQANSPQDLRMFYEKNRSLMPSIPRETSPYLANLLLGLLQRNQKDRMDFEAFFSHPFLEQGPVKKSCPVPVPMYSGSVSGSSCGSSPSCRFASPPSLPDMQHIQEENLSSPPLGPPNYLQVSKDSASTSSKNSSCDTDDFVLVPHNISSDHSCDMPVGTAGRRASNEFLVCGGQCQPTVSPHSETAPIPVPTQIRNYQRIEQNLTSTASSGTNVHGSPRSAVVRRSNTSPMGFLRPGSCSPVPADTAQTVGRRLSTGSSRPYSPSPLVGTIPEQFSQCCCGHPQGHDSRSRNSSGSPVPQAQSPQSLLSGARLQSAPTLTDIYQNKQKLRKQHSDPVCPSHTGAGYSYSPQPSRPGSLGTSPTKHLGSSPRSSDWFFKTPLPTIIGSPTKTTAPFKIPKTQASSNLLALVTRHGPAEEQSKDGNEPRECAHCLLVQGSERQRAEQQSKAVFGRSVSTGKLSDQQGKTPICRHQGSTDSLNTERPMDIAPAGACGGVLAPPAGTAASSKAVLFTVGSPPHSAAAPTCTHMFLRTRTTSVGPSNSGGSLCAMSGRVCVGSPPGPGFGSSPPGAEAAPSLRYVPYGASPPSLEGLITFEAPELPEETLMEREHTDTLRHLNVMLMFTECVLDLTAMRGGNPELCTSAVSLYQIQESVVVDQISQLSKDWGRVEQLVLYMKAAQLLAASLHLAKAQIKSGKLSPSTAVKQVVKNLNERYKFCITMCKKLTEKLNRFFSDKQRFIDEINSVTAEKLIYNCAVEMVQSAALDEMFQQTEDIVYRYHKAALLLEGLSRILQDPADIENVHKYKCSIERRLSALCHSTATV
Assay type: binding
Conditions: kinase ULK2; compound concentration 10 µM
Text: We assessed the selectivity of members of this scaffold using the KINOMEscan methodology across a near comprehensive panel of 442 kinases [[18,27]].

SMILES	% Ctrl, ULK2 [% Ctrl]
COc1cc(C(=O)N2CCC(N3CCN(C)CC3)CC2)ccc1Nc1ncc2c(n1)N(C)c1ccccc1C(=O)N2C [15 (LRRK2-IN-1)]	67
COc1cc(C(=O)N2CCC(N3CCN(C)CC3)CC2)ccc1Nc1ncc2c(n1)N1CCc3cccc(c31)C(=O)N2C [Compound 24]	96
COc1cc(C(=O)N2CCC(N3CCN(C)CC3)CC2)ccc1Nc1ncc2c(n1)N(C1CCCC1)c1ccccc1C(=O)N2C [Compound 25, 11-cyclopentyl-2-((2-methoxy-4-(4-(4-methylpiperazin-1-yl)piperidine-1-carbonyl)phenyl)amino)-5-methyl-5H-benzo[e]pyrimido[5,4-b][1,4]diazepin-6(11H)-one]	75
CCOc1cc(C(=O)N2CCC(N3CCN(C)CC3)CC2)ccc1Nc1ncc2c(n1)N(C1CCCC1)c1ccccc1C(=O)N2C [Compound 26]	98

From article PMC3914206
